Experimental data published in the NIST ThermoML archive (doi:10.1016/j.jct.2006.02.005).
“And” between values parts separate entries of the source, which are not always exact repeats. Equal entries are not always repeated.

Experiments:
[1] = Molar enthalpy of transition or fusion
[2] = molar heat capacity at constant pressure; details: 101.33 kPa

CC(C)(CO)CO [2,2-dimethyl-1,3-propanediol]
Details | Normal melting temperature [°C] | Triple point temperature [K]
Crystal 1 | 128.48 | –
Crystal 2 | – | 315.14

[1]
Details | Molar enthalpy of transition or fusion [kcal/mol]
Crystal 1 | 1.01
Crystal 2 | 2.92

[2]
Details | molar heat capacity at constant pressure
193.15 K, Crystal 2 | 120.71 J/K/mol and 121.44 J/K/mol
198.15 K, Crystal 2 | 122.48 J/K/mol and 123 J/K/mol
203.15 K, Crystal 2 | 124.15 J/K/mol and 124.36 J/K/mol
208.15 K, Crystal 2 | 123.83 J/K/mol and 125.5 J/K/mol
213.15 K, Crystal 2 | 125.6 J/K/mol and 127.58 J/K/mol
218.15 K, Crystal 2 | 127.48 J/K/mol and 130.08 J/K/mol
223.15 K, Crystal 2 | 130.08 J/K/mol and 132.06 J/K/mol
228.15 K, Crystal 2 | 132.79 J/K/mol and 133.62 J/K/mol
233.15 K, Crystal 2 | 134.98 J/K/mol and 134.87 J/K/mol
238.15 K, Crystal 2 | 135.71 J/K/mol and 136.54 J/K/mol
243.15 K, Crystal 2 | 136.64 J/K/mol and 138.1 J/K/mol
248.15 K, Crystal 2 | 136.64 J/K/mol and 140.5 J/K/mol
253.15 K, Crystal 2 | 138 J/K/mol and 142.37 J/K/mol
258.15 K, Crystal 2 | 139.46 J/K/mol and 144.66 J/K/mol
263.15 K, Crystal 2 | 141.23 J/K/mol and 147.79 J/K/mol
268.15 K, Crystal 2 | 142.89 J/K/mol and 150.6 J/K/mol
273.15 K, Crystal 2 | 145.29 J/K/mol and 153.62 J/K/mol
278.15 K, Crystal 2 | 156.54 J/K/mol and 147.48 J/K/mol
283.15 K, Crystal 2 | 160.08 J/K/mol and 150.18 J/K/mol
288.15 K, Crystal 2 | 164.45 J/K/mol and 153.31 J/K/mol
293.15 K, Crystal 2 | 168.1 J/K/mol and 156.12 J/K/mol
298.15 K, Crystal 2 | 172.06 J/K/mol and 159.25 J/K/mol
303.15 K, Crystal 2 | 176.53 J/K/mol and 163.1 J/K/mol
308.15 K, Crystal 2 | 184.35 J/K/mol and 167.58 J/K/mol
323.15 K, Crystal 1 | 260.17 J/K/mol and 244.86 J/K/mol
328.15 K, Crystal 1 | 268.5 J/K/mol and 247.56 J/K/mol
333.15 K, Crystal 1 | 250.27 J/K/mol and 274.54 J/K/mol
338.15 K, Crystal 1 | 252.15 J/K/mol and 278.81 J/K/mol
343.15 K, Crystal 1 | 254.75 J/K/mol and 282.45 J/K/mol
348.15 K, Crystal 1 | 256.52 J/K/mol and 286.2 J/K/mol
353.15 K, Crystal 1 | 258.71 J/K/mol and 288.81 J/K/mol
358.15 K, Crystal 1 | 260.79 J/K/mol and 291.2 J/K/mol
363.15 K, Crystal 1 | 263.19 J/K/mol and 294.22 J/K/mol
368.15 K, Crystal 1 | 265.69 J/K/mol and 296.93 J/K/mol
373.15 K, Crystal 1 | 268.39 J/K/mol and 299.85 J/K/mol
378.15 K, Crystal 1 | 272.04 J/K/mol and 303.6 J/K/mol
383.15 K, Crystal 1 | 277.04 J/K/mol and 309.64 J/K/mol
388.15 K, Crystal 1 | 285.06 J/K/mol and 322.55 J/K/mol
393.15 K, Crystal 1 | 309.85 J/K/mol and 358.48 J/K/mol
408.15 K, Liquid | 330.26 J/K/mol
413.15 K, Liquid | 339.95 J/K/mol
418.15 K, Liquid | 345.99 J/K/mol
423.15 K, Liquid | 353.38 J/K/mol
